Experiment [1] deals with d(AT)10 (DNA, duplex) ATATATATATATATATATAT
Kind of experiment: fluorescent indicator displacement. The settings on record: Na+ (10 mM sodium phosphate); pH 7.0, 25 °C; DAPI displaced; DNA 20 μM bp; dye 0.5–50 μM.

For experiment [2], the system named is d(GC)10 (DNA, duplex) GCGCGCGCGCGCGCGCGCGC
Kind of experiment: fluorescent indicator displacement. The settings on record: Na+ (10 mM sodium phosphate); pH 7.0, 25 °C; EtBr displaced; DNA 20 μM bp; dye 0.5–50 μM.

Experiment [3] concerns dsDNA (DNA, duplex) CGCGGCGTACAGTGATCTACCATGCCCTGG/CCAGGGCATGGTAGATCACTGTACGCCGCG
Kind of experiment: fluorescence titration, modified McGhee-von Hippel fit. The settings on record: Na+ (10 mM sodium phosphate), pH 7.0, dye 2 μM, DNA in bp, per base.

The test system is the same in experiment [4]. Kind of experiment: fluorescence enhancement. The note with it: Na+ (10 mM sodium phosphate), pH 7.0, 25 °C, dye 2 μM, DNA 1 μM.

Molecules are shown by their SMILES.

For `CCN(CC)c1ccc(/C=C/c2cc[n+](C)c3ccccc23)c(OCCCC[N+](C)(C)C)c1`, the binding entry in experiment [1] and in experiment [2] was “yes” in each case. Moreover, the Kb in experiment [3] (n = 2.1 bp per dye) is 245000 M⁻¹.
With `CCN(CC)c1ccc(/C=C/c2cc[n+](C)c3ccccc23)cc1`, the binding entry in experiment [1] and in experiment [2] was “yes” each time. For the same compound, the Kb in experiment [3] (n = 2.8 bp per dye) came to 70000 M⁻¹.
On to `CCN(CC)c1ccc(/C=C/c2cc[n+](C)cc2)c(OCCCC[N+](C)(C)C)c1`, for which, in experiment [1], the binding result is reported as “yes”. The same compound had a Kb in experiment [3] (n = 4.0 bp per dye) of 141000 M⁻¹.
As to `CCN(CC)c1ccc(/C=C/c2cc[n+](C)cc2)c(OCCC[N+](C)(C)C)c1`, the binding entry in experiment [4] (F/F0 54.8) is listed as “yes”.
Consider `CCN(CC)c1ccc(/C=C/c2cc[n+](C)cc2)c(OCC[N+](C)(C)C)c1`, for which the binding entry in experiment [4] (F/F0 60.5) is on record as “yes”.
As for `CCN(CC)c1ccc(/C=C/c2cc[n+](C)cc2)cc1`, in experiment [1], the binding entry is on record as “yes”. This compound showed a Kb in experiment [3] (n = 4.4 bp per dye) of 10000 M⁻¹.
In the case of `CCN(CC)c1ccc(/C=C/c2sc3ccccc3[n+]2C)c(OCCCC[N+](C)(C)C)c1`, the binding entry in experiment [1] and in experiment [2] was “yes” in each case. Moreover, the Kb in experiment [3] (n = 2.5 bp per dye) was found to be 121000 M⁻¹.
On to `CCN(CC)c1ccc(/C=C/c2sc3ccccc3[n+]2C)cc1`, for which the binding entry in experiment [1] and in experiment [2] was “yes” each time. In addition, in experiment [3] (n = 2.5 bp per dye), the Kb amounted to 35000 M⁻¹.
With `COc1ccc(/C=C/c2sc3ccccc3[n+]2C)c(OCCCC[N+](C)(C)C)c1`, the binding entry in experiment [4] (F/F0 10.9), in experiment [1] and in experiment [2] was “yes” in each case.
